Source: patent US20050238619A1, “Method for the delivery of sustained release agents” (priority 2004, published 2005)

Columns and labels:
[1] = Fluorescein retention in RF ablated hepatic tumors in clinical studies, estimated from serial urine samples; format: in vivo, patients; details: patient 1, after 12 days; 1 ml of 10% fluorescein (100 mg), 20 injections; estimated 2 L urine/day; FIG. 6
Description: Six patients with unresectable hepatic metastases or hapatocellular carcinoma were enrolled in the Internal Review Board approved protocol following the process of informed consent. Eligibility required that the patient receive RFA for therapeutic intent. RFA was performed using a RadioTherapeutics® device according to their specifications. Subsequently, 1 ml of 10% fluorescein was injected into the ablated tissue (20 different injections).
Because 98% of fluorescein is excreted in the urine, the amount of released and retained fluorescein could be estimated from serial urine sample. Serially, first morning void urine samples were collected and assessed for fluorescein. The retained fluorescein was calculated by subtracting the estimated excreted fluorescein (measured fluorescein (mg/mL)×estimated 2 L urine/day volume) from the total injected fluorescein (100 mg).

[2] = Fluorescein retention by RF ablated bovine liver versus number of injections (fluorimeter); format: in vitro ADME; details: total volume 0.5 mL, tissue washed over 10 minutes, FIG. 2
Description: Ablated bovine liver, prepared as in Example 1, was injected 3, 10, or 30 times with fluorescein (total volume of 0.5 mL). The tissue was extensively washed over 10 minutes; and the retained fluorescein was calculated as a percentage of the total injected fluorescein. To quantify the retained fluorescein, the washed tissue was homogenized, centrifuged and the supernatant assessed for fluorescein using a fluorimeter with excitation and emission filters of 485 nm and 525 nm, respectively.

[3] = general statement used as the basis of the calculation; cited from earlier work
[4] = Fluorescein retention in RF ablated bovine liver, washed in PBS and photographed under UV light; format: in vitro ADME; details: ablated bovine liver bivalved, agitated in 1 L PBS exchanged daily; photographed under UV light; FIG. 1
Description: Bovine liver was ablated, injected multiple times with fluorescein. […] The PBS was exchanged daily for two weeks. At weekly intervals, the ablated tissue was photographed under ultraviolet (UV) light. […] This approach can be used to help train and assess people to use the technique.

[5] = Release of fluorescein from RF ablated bovine liver tissue; format: in vitro ADME; details: FIG. 3
Description: To determine the rate of fluorescein release, bovine liver was ablated with RF and injected with fluorescein. […] However, after one week of continued washing, the ablated tissue still contained greater than 50% of the original fluorescein.

[6] = Fluorescein retention in RF ablated subcutaneous Ras-6 tumors in vivo; parameters: species or system Balb/c female mice; details: Ras-6 flank tumors, RFA, 50 μl fluorescein in 1 to 3 injections; FIG. 4
Description: Balb/c female mice were injected with 10^6 Ras-6 tumor cells in the flank. The Ras-6 tumor was derived by transfection of a p53-null BALB/c murine embryo fibroblast line with a mutant ras gene. Once the tumors reached 0.5-1 cm in size, the animals were placed under general anesthesia; and the tumors was ablated using a 0.7 cm multi-tined probe. RFA was accomplished by starting with 1-3 watts of power and increasing the power every 30 seconds. A special resistor circuit was placed in the circuit to avoid a low resistance default interrupt error built into the RFA generator. Following RFA, the tumors were injected with a total volume of 50 μl of fluorescein using 1 to 3 injections. At various intervals, the animals were sacrificed and the retained fluorescein assessed. FIG. 4 depicts the residual fluorescein after 1, 3, and 8 days. Consistent with the ex vivo studies, the amount of fluorescein decreases over this time interval; however, substantial fluorescein remains in the ablated tumor for ar least 8 days in vivo.

- calculated fluorescein retained in the ablated tumor [1]: greater than 90%
- retained fluorescein as a percentage of the total injected fluorescein ([2]; 3 injections): 41%
- retained fluorescein as a percentage of the total injected fluorescein ([2]; 10 injections): 49%
- retained fluorescein as a percentage of the total injected fluorescein ([2]; 30 injections): about 65%
- time fluorescein was detected within the ablated tissue [4]: at least two weeks
- course of released fluorescein ([5]; RF ablated bovine liver, continued washing): exponential decline
- fluorescein still contained in the ablated tissue, of the original fluorescein ([5]; after one week of continued washing): greater than 50%
- time substantial fluorescein remains in the ablated tumor in vivo [6]: ≥ 8 days
SMILES: O=C1OC2(c3ccc(O)cc3Oc3cc(O)ccc32)c2ccccc21 [fluorescein]
- fluorescein excreted in the urine [3]: 98%
